According to patent US11590129B2, “Combination therapy with an antitumor alkaloid” (PHARMA MAR, S.A., priority 2010, dated 2023):
pIC50: −log10 of the molar value. Like-named read-outs stand apart in the source and are kept apart here.

Key:
[1] = system: A549 human lung carcinoma cell line; assay: MTT cytotoxicity assay in A549 cells: IC50 of single agents and combinations with PM01183; format: cell-based
Experimental: (§1) Additional serial dilutions were prepared in serum-free culture medium to achieve a final 4× concentration. Aliquots of 50 μL of each diluted compound were added per well.
A549 was the human lung carcinoma cell line selected for this assay.
(§2) a. […] Briefly, cells were harvested and seeded in 96 well microtiter plates at a density of 5,000 cells in 150 μL of culture medium and incubated for 24 hours in drug-free medium before treatment with vehicle alone or test compounds for 72 h.
(§3) The cytotoxic effect was measured by the MTT reduction assay, in which 3-(4,5-Dimethylthiazol-2-yl)-2,5-diphenyltetrazolium bromide, a tetrazole, which is reduced to purple formazan in the mitochondria of living cells, was used. MTT (50 μL of 1 mg/mL stock solution) was added to the wells and incubated for 8 hours at 37° C. until formazan crystals were formed. After gently removing the culture medium, DMSO was added to dissolve the insoluble purple formazan product into a colored solution. […] Results were expressed as percentage of control cell growth.
(§4) b. In a second set of assays, A549 human tumor cells were incubated with PM01183 in combination with each of the agents mentioned above.
(§5) As a visual aid, response values were plotted on a scatter plot with dose ratios given on the x-axis and % response values on the y-axis. […] In cases where response values at the two endpoints were approximately equivalent, points lying above or below this predicted line of additivity could be interpreted as representing antagonistic or synergistic drug interaction, respectively.

[2] = system: A673 human rhabdomyosarcoma cell line; assay: cells
Experimental: as §2, §3, §4, §5, §1
A673 was the human rhabdomyosarcoma cell line selected for this assay.

[3] = system: PC-3 human prostate cancer cell line; assay: cells
Experimental: as §2, §3, §4, §5, §1
PC-3 was the human prostate adenocarcinome cell line selected for this assay.

[4] = system: PANC-1 human pancreatic carcinoma cell line; assay: cells
Experimental: as §2, §3, §4, §5, §1
PANC-1 was the human pancreatic carcinoma cell line selected for this assay.

[5] = system: HGC-27 human gastric carcinoma cell line; assay: cells
Experimental: as §2, §3, §4, §5, §1
HGC-27 was the human gastric carcinoma cell line selected for this assay.

[6] = system: IGROV-1 human ovarian adenocarcinoma cell line; assay: cells
Experimental: as §2, §3, §4, §5, §1
IGROV-1 was the human ovarian adenocarcinoma cell line selected for this assay.

[7] = system: HepG2 human hepatocellular liver carcinoma cell line; assay: MTT cytotoxicity assay in HepG2 cells: IC50 of single agents and combinations with PM01183; format: cell-based
Experimental: as §2, §3, §4, §5, §1
HepG2 was the human hepatocellular liver carcinoma cell line selected for this assay.

[8] = system: MDA-MB-231 human breast adenocarcinoma cell line; assay: cells
Experimental: as §2, §3, §4, §5, §1

[9] = system: RXF-393 human kidney carcinoma cell line; assay: cells
Experimental: as §2, §3, §4, §5, §1

[10] = system: HT-29 human colon adenocarcinoma cell line; assay: cells
Experimental: as §2, §3, §4, §5, §1
HT-29 was the human colon adenocarcinoma cell line selected for this assay.

[11] = system: U87-MG human glioblastoma cell line; assay: cells
Experimental: as §2, §3, §4, §5, §1
U87-MG was the human glioblastoma cell line selected for this assay.

[12] = system: SK-MEL-2 human melanoma cell line; assay: cells
Experimental: as §2, §3, §4, §5, §1
SK-MEL-2 was the human melanoma cell line selected for this assay.

Row | Structure (SMILES) | pIC50 ([3]; Homo sapiens, PC-3, 72 h) | pIC50 ([4]; Homo sapiens, PANC-1, 72 h) | pIC50 ([5]; Homo sapiens, HGC-27, 72 h) | pIC50 ([6]; Homo sapiens, IGROV-1, 72 h) | pIC50 ([8]; Homo sapiens, MDA-MB-231, 72 h) | pIC50 ([9]; Homo sapiens, RXF 393, 72 h) | pIC50 ([10]; Homo sapiens, HT-29, 72 h) | pIC50 ([11]; Homo sapiens, U-87 MG, 72 h) | pIC50 ([1]; read-out: IC50) | pIC50 [2] | pIC50 [3] | pIC50 [6] | pIC50 [8] | pIC50 [10] | also measured
1 | C#Cc1cccc(Nc2ncnc3cc(OCCOC)c(OCCOC)cc23)c1 [Erlotinib, erlotinib] | 3.63 | 6.38 | 5.12 | 5.10 | 4.00 | 5.32 | 4.59 | 3.83 |  |  |  |  |  |  | pIC50 ([1]; Homo sapiens, A549, 72 h): 5.00; pIC50 ([2]; Homo sapiens, A673, 72 h): 4.30; pIC50 ([7]; Homo sapiens, HepG2, 72 hours drug exposure, MTT, read-out: IC50): 5.07
2 | CCc1c2c(nc3ccc(OC(=O)N4CCC(N5CCCCC5)CC4)cc13)-c1cc3c(c(=O)n1C2)COC(=O)[C@]3(O)CC [Irinotecan, irinotecan] | 4.15 | 4.05 | 5.40 | 5.00 | 5.07 | 4.85 | 5.05 | 5.12 |  |  |  |  |  |  | pIC50 ([12]; Homo sapiens, SK-MEL-2, 72 h): 4.74; pIC50 ([7]; Homo sapiens, HepG2, 72 h): 6.00
3 | CO[C@@]12[C@H](COC(N)=O)C3=C(C(=O)C(C)=C(N)C3=O)N1C[C@@H]1N[C@@H]12 [Mitomycin C, mitomycin C] |  |  |  |  |  |  |  |  | 3.60 | 5.52 | 5.00 | 5.52 | 5.70 | 5.70 | pIC50 [12]: 6.05; pIC50 [9]: 5.05
4 | O=C1[O][Pt]2([NH][C@@H]3CCCC[C@H]3[NH]2)[O]C1=O [Oxaliplatin, oxaliplatin] |  |  |  |  |  |  |  |  | 3.05 | 4.11 | 3.77 | 5.07 | 3.97 | 3.99 | pIC50 [4]: 3.74; pIC50 [5]: 3.97; pIC50 ([7]; read-out: IC50): 4.55; pIC50 [11]: 3.72
